In US10111901B2, “Beta-glucan in combination with anti-cancer agents affecting the tumor microenvironment” (Biothera, Inc., priority 2014, dated 2018):

How the values were obtained:
mMoDC = assay: Flow cytometry of maturation markers on mature monocyte-derived dendritic cells (mMoDC); type: cell-based, human
Procedure: Given that macrophages and dendritic cells are the two key antigen presenting cell types that bridge innate and adaptive immunity, the phenotypic and functional effect of soluble β-glucan was also evaluated on human monocyte-derived dendritic cells (MoDC). Monocytes enriched from soluble β-glucan- or vehicle-treated whole blood were cultured in media containing the appropriate cytokines, GM-CSF plus IL-4, for differentiation of dendritic cells. Steps included in the method for in vitro culture and characterization of human MoDCs are outlined below.
The phenotypic and functional evaluation of mMoDC prepared from soluble β-glucan-treated whole blood of a high binder and low binder was carried out. mMoDCs from a high binder and a low binder were prepared as described above. mMoDCs were evaluated for CD80, CD83, CD86 and HLA-DR expression by flow cytometry, and median MFI was calculated for isotype control staining and surface antigen staining and the results are shown in Table 7.
MoDC derived from β-glucan-treated monocytes are more mature even in immunosuppressive conditions. MoDCs were prepared as described above. TCM was added to account for 70% of the volume of the culture on day 0 and was present throughout the culturing period. mMoDCs cultured in the presence of TCM were subsequently evaluated for phenotypic changes.

M2 macrophages = assay: Mac-CD4 T co-culture surface marker modulation on macrophages; type: cell-based, human
Procedure: (§1) For evaluation of Mac-CD4 T cell surface marker modulation, M2 macrophages were co-cultured with T cells as described above and cells were harvested on day 8, day 9 and day 10 to perform surface receptor staining on both M2 macrophages and T cells.
(§2) Changes in surface marker expression on both macrophages and CD3 & CD28-stimulated T cells were also measured. Vehicle- and β-glucan-treated M2 macrophages and CD T cells from the co-cultures were evaluated by flow cytometry for the modulation of co-stimulatory or co-inhibitory molecules. FIG. 8C and Table 9 are representative results from 2 different experiments.

CD4 T cells = assay: Mac-CD4 T co-culture surface marker modulation on T cells; type: cell-based, human
Procedure: as §1, §2

Tregs (CD4+CD25+) = assay: Treg suppression assay; type: cell-based, human
Procedure: Since these PBMC cultures contain Tregs, the suppressive ability of Tregs seem to be altered in the presence of soluble β-glucan and studies were carried out to determine if β-glucan affected Treg suppression. Plasma from β-glucan-treated or vehicle-treated whole blood (described above) was added to 25,000 isolated CFSE-labeled autologous CD4 T cells (CD4^+CD25^−) along with increasing numbers of isolated autologous Tregs (CD4^+CD25^+) resulting in wells with increasing ratios. Cells were then stimulated with 50,000 T cell activating CD3/28 beads for 3 days. Proliferation was subsequently measured by CFSE dilution and quantified by Division Index, which was used to calculate the % suppression of Tregs in the co-culture. % suppression=100−(Division Index of Treg well/Division Index of 1:0 well)[…].
The Treg suppression assay was conducted as described above, and after 3 days of co-culture, supernatants were analyzed for IFN-gamma production.

MiaPaCa = assay: PD-L1 upregulation in MiaPaCa tumor cells by treated M2 macrophages; type: cell-based
Procedure: β-glucan- and vehicle-treated M2 macrophages and β-glucan-treated M2 macrophages+ABA were cultured with high binder serum and low binder serum to evaluate PD-L1 expression on tumor cells.

[1] = MoDC cultured in TCM, immunosuppressive conditions
[2] = relative to vehicle-treated M2 macrophages, co-culture
[3] = T cells co-cultured with β-glucan-treated M2 macrophages relative to vehicle-treated

β(1,6)-[poly-(1,3)-D-glucopyranosyl]-poly-β(1,3)-D-glucopyranose [β-glucan]
CD80 median MFI (mMoDC; MoDC cultured in TCM (70% of volume, from day 0), immunosuppressive conditions): 465
CD83 median MFI (mMoDC; [1]): 607
CD86 median MFI (mMoDC; [1]): 15797
HLA-DR median MFI (mMoDC; [1]): 361
CD80 median MFI (mMoDC; mMoDCs, high binder): 744
CD83 median MFI (mMoDC; mMoDCs, high binder): 466
CD86 median MFI (mMoDC; mMoDCs, high binder): 10759
HLA-DR median MFI (mMoDC; mMoDCs, high binder): 7049
CD80 median MFI (mMoDC; mMoDCs, low binder): 1197
CD83 median MFI (mMoDC; mMoDCs, low binder): 2924
CD86 median MFI (mMoDC; mMoDCs, low binder): 77749
HLA-DR median MFI (mMoDC; mMoDCs, low binder): 2960
Change in MFI on Macrophages: 4-1BBL (M2 macrophages; [2]): No change
Change in MFI on Macrophages: CD40 (M2 macrophages; [2]): No change
Change in MFI on Macrophages: CD80 (M2 macrophages; [2]): No change
Change in MFI on Macrophages: CD172 (M2 macrophages; [2]): No change
Change in MFI on Macrophages: CD209 (M2 macrophages; [2]): No change
Change in MFI on Macrophages: OX40 (M2 macrophages; [2]): No change
Change in MFI on Macrophages: CD86 (M2 macrophages; relative to vehicle-treated M2 macrophages, co-culture (day 8)): Increase
Change in MFI on Macrophages: PD-L1 (CD274) (M2 macrophages; relative to vehicle-treated M2 macrophages, co-culture (day 9)): Increase
Change in MFI on Macrophages: HLA-DR (M2 macrophages; β-glucan-treated M2 macrophages relative to vehicle-treated, co-culture with CD3 & CD28-stimulated T cells): No change
Change in MFI on T cells: 4-1BB (CD4 T cells; [3]): No change
Change in MFI on T cells: CD28 (CD4 T cells; [3]): No change
Change in MFI on T cells: CD40L (CD4 T cells; [3]): No change
Change in MFI on T cells: CTLA-4 (CD4 T cells; [3]): No change
Change in MFI on T cells: PD1 (CD279) (CD4 T cells; T cells co-cultured with β-glucan-treated M2 macrophages relative to vehicle-treated (day 9)): Increase
IFN-gamma production (Tregs (CD4+CD25+); Treg suppression assay, 3 days, 8:1 T cell to Treg ratio): enhanced IFN-gamma production
suppressive capacity of Tregs (Tregs (CD4+CD25+); plasma from β-glucan-treated whole blood vs vehicle-treated): significant decreases
expression of PD-L1 on tumor cells (MiaPaCa; β-glucan-treated M2 macrophages with addition of ABA, low binders): also increased expression
expression of PD-L1 on tumor cells (MiaPaCa; β-glucan-treated M2 macrophages, high binders): increased expression
